Here are results for 4 molecules from PMC7177849, “Gut Microbial Catabolites of Tryptophan Are Ligands and Agonists of the Aryl Hydrocarbon Receptor: A Detailed Characterization” (International Journal of Molecular Sciences, 2020).

Series [1] deals with AhR. On the set-up: method as in PMID 23973224. The settings on record: mouse H1L1.1c2 reporter cells; cited from earlier work.
For a further series, the system named is CYP1A1 mRNA. On the set-up: method as in PMID 24563545. The settings on record: cited from earlier work.
For series [2], the system named is AhR. On the set-up: method as in PMID 26235394. The settings on record: 100 µM IND, HepG2 cells, 4 h; cited from earlier work.
The subject of a further series is CYP1A1 promoter. Briefly: Chromatin immunoprecipitation (ChIP), binding of the AhR to CYP1A1 promoter in LS180 cells. Format: cell-based, human. The settings on record: 90 min. The method, then: Figure 7 MICT elicit the binding of the AhR to CYP1A1 promoter, as determined by the chromatin immunoprecipitation assay (ChIP). LS180 cells were incubated with vehicle, TCDD, and tested compounds, as described in Materials and Methods, and were then subjected to ChIP analysis. Bar graphs show binding of the AhR to CYP1A1 promoter as quantified by RT-PCR. The entire protocol was carried out in three consecutive cell passages. The data are expressed as a fold enrichment to vehicle-treated cells and show the mean ± SD from duplicates (technical replicates). DNA fragments amplified by PCR were resolved on 2% agarose gel (representative record from “exp 2” is shown).
LS180 cells (4 million) were seeded in a 60-mm dish in Dulbecco’s modified Eagle’s medium (D6546; Sigma Aldrich). The following day, the cells were incubated with DMSO (0.1% V/V), TCDD (10 nM), IND (1000 µM), IPY (200 µM), 3MI (200 µM), TA (200 µM), IAC (100 µM), and IAD (200 µM) for 90 min at 37 °C. ChIP assay was performed as we described in detail elsewhere.

In the case of `O=Cc1c[nH]c2ccccc12` [IA, indole-3-aldehyde], the agonist activity result with AhR [1] is given as “vigorous agonist activity”.
As for `c1ccc2[nH]ccc2c1` [IND, indole], the “induction of CYP1A1 mRNA” value is “moderate induction” with CYP1A1 mRNA (various human cells, 500–1000 µM IND) and “achieved” in the series with AhR [2]. Besides, in the series with AhR [2], the “activation of AhR” value was “achieved”.
Turning to `NCCc1c[nH]c2ccccc12` [TA, tryptamine], the “CYP1A1 mRNA induction” value in the series on CYP1A1 mRNA (50 µM TA, Caco-2 and cells) was “induction”.
As to `Clc1cc2c(cc1Cl)Oc1cc(Cl)c(Cl)cc1O2` [TCDD, 2,3,7,8-tetrachlorodibenzo-p-dioxin, reference compound], in the series with CYP1A1 promoter, the “binding of the AhR to the promoter of the CYP1A1 gene” value was “enhanced”.
